From ChEMBL document CHEMBL1201862, “PubChem BioAssay data set” (2004)
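Interpolation was linear, between the two tested concentrations surrounding the appropriate level; five concentrations were tested over 48 hours in 96-well plates. GI50 marks 50% less growth.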 Calls of active or inactive are those of the source. Cut-off read from the data, not from the text of the source: active = GI50 up to about 1.1 µM and inactive = higher.

Assays:
Assay in all cases: growth of human tumour cells (NCI), 48 h
M14 = system: M14
RPMI-8226 = system: RPMI-8226
Hs-578T = system: Hs-578T
MCF7 = system: MCF7
SF-268 = system: SF-268
UACC-257 = system: UACC-257
HCT-15 = system: HCT-15
TK-10 = system: TK-10
SK-MEL-28 = system: SK-MEL-28
SN12C = system: SN12C
UO-31 = system: UO-31
A498 = system: A498
SF-539 = system: SF-539
SK-MEL-5 = system: SK-MEL-5
UACC-62 = system: UACC-62
HOP-92 = system: HOP-92
CAKI-1 = system: CAKI-1
SK-MEL-2 = system: SK-MEL-2
HT-29 = system: HT-29

Row | SMILES | GI50 (M14) | GI50 (RPMI-8226) | GI50 (Hs-578T) | GI50 (MCF7) | GI50 (SF-268) | GI50 (UACC-257) | GI50 (HCT-15) [µM] | GI50 (TK-10) | GI50 (SK-MEL-28) | GI50 (SN12C) | GI50 (UO-31) | GI50 (A498) | GI50 (SF-539) | GI50 (SK-MEL-5) | GI50 (UACC-62) | GI50 (HOP-92) | GI50 (CAKI-1) | GI50 (SK-MEL-2) | GI50 (HT-29)
1 | COc1nc(OC)nc(-c2cccc(F)c2)n1 | 18 µM (inactive) | 10.8 µM (inactive) | 32.1 µM (inactive) | 15.9 µM (inactive) | 14 µM (inactive) | 14.3 µM (inactive) | 13.7 | 18.3 µM (inactive) | 19 µM (inactive) | 16.2 µM (inactive) | 16.6 µM (inactive) | 19.1 µM (inactive) | 17.4 µM (inactive) | 15.6 µM (inactive) | 8.51 µM (inactive) | 6.41 µM (inactive) | < 0.01 µM (active) | 18.8 µM (inactive) | 17.1 µM (inactive)
2 | COc1ccc(NC(=O)CC2SC(Nc3ccc(Cl)cc3C)=NC2=O)c([N+](=O)[O-])c1 (stereo not given) | > 100 µM (inactive) | > 100 µM (inactive) |  |  | > 100 µM (inactive) | > 100 µM (inactive) | > 100 | > 100 µM (inactive) | > 100 µM (inactive) | > 100 µM (inactive) | > 100 µM (inactive) | > 100 µM (inactive) | > 100 µM (inactive) | > 100 µM (inactive) | > 100 µM (inactive) | > 100 µM (inactive) | > 100 µM (inactive) | > 100 µM (inactive) | > 100 µM (inactive)
3 | c1ccc(CNn2nnc3ccccc32)cc1 | > 100 µM (inactive) | > 100 µM (inactive) |  |  | > 100 µM (inactive) | > 100 µM (inactive) | > 100 | > 100 µM (inactive) | > 100 µM (inactive) | > 100 µM (inactive) | > 100 µM (inactive) |  |  | > 100 µM (inactive) | > 100 µM (inactive) | > 100 µM (inactive) | > 100 µM (inactive) | > 100 µM (inactive) | > 100 µM (inactive)
4 | CC1(C)S[C@H](CN)N[C@H]1C(=O)OC(c1ccccc1)c1ccccc1 | 34.2 µM (inactive) | 21.6 µM (inactive) | 83.2 µM (inactive) | 61.9 µM (inactive) | 88.1 µM (inactive) | 17.4 µM (inactive) | 36.1 | 61.7 µM (inactive) | 56.5 µM (inactive) | 32.4 µM (inactive) | 22.3 µM (inactive) | 20 µM (inactive) |  | 17.2 µM (inactive) | 22.9 µM (inactive) | 16.7 µM (inactive) | 34.4 µM (inactive) | 27.7 µM (inactive) | 33.7 µM (inactive)
5 | O=c1c2c(c1=O)-c1ccccc1CN2 | > 100 µM (inactive) | > 100 µM (inactive) |  |  | > 100 µM (inactive) | > 100 µM (inactive) | > 100 | > 100 µM (inactive) | > 100 µM (inactive) | > 100 µM (inactive) | > 100 µM (inactive) | > 100 µM (inactive) | > 100 µM (inactive) | > 100 µM (inactive) | > 100 µM (inactive) | > 100 µM (inactive) | > 100 µM (inactive) | > 100 µM (inactive) | > 100 µM (inactive)
6 | CC(C)OP(=O)(OC(C)C)/C(=N/Nc1ccccc1[N+](=O)[O-])NCCN/C(=N\Nc1ccccc1[N+](=O)[O-])P(=O)(OC(C)C)OC(C)C | 36.1 µM (inactive) | 28.2 µM (inactive) |  |  | 67.1 µM (inactive) | 29.2 µM (inactive) | 30.3 | 39.1 µM (inactive) | 39.4 µM (inactive) | 43.7 µM (inactive) | 29.3 µM (inactive) | 49.5 µM (inactive) | 38.1 µM (inactive) | > 10 µM (inactive) | 19.2 µM (inactive) | 32 µM (inactive) | 25.6 µM (inactive) | 19.6 µM (inactive) | 
7 | COc1ccc([C@@H]2CC(=O)NCCCNCCCCNCCCN2)cc1 | > 100 µM (inactive) | > 100 µM (inactive) |  |  | > 100 µM (inactive) | > 100 µM (inactive) | > 100 | > 100 µM (inactive) | > 100 µM (inactive) | > 100 µM (inactive) | > 100 µM (inactive) | > 100 µM (inactive) | > 100 µM (inactive) | > 100 µM (inactive) | > 100 µM (inactive) | > 100 µM (inactive) | > 100 µM (inactive) | > 100 µM (inactive) | > 100 µM (inactive)
8 | NC1=NS(=O)(=O)Nc2nc(-c3ccc(Cl)cc3)[nH]c21 | > 100 µM (inactive) | > 100 µM (inactive) |  |  | > 100 µM (inactive) |  | > 100 | > 100 µM (inactive) | > 100 µM (inactive) | > 100 µM (inactive) | > 100 µM (inactive) | > 100 µM (inactive) | > 100 µM (inactive) | > 100 µM (inactive) | > 100 µM (inactive) | 88.1 µM (inactive) | > 100 µM (inactive) | > 100 µM (inactive) | > 100 µM (inactive)
9 | [O-][n+]1c2c([n+]([O-])c3ccccc31)CCCCCCCCCC2 | > 100 µM (inactive) | > 100 µM (inactive) |  |  | > 100 µM (inactive) | 67.8 µM (inactive) | > 100 | > 100 µM (inactive) | > 100 µM (inactive) | > 100 µM (inactive) | > 100 µM (inactive) |  | > 100 µM (inactive) |  | > 100 µM (inactive) | 67.8 µM (inactive) | > 100 µM (inactive) | > 100 µM (inactive) | > 100 µM (inactive)
10 | COc1ccc(N2C(=O)C3ON(C(C(N)=O)c4ccccc4)C(c4ccc(-c5ccccc5)cc4)C3C2=O)cc1 (stereo not given) | 48.4 µM (inactive) | 16.8 µM (inactive) | > 50 µM (inactive) | 31.3 µM (inactive) | > 50 µM (inactive) | > 50 µM (inactive) | > 50 | > 50 µM (inactive) | > 50 µM (inactive) | > 50 µM (inactive) | > 50 µM (inactive) | > 50 µM (inactive) | > 50 µM (inactive) |  | > 50 µM (inactive) |  | > 50 µM (inactive) | > 50 µM (inactive) | 24.8 µM (inactive)
11 | C=C(NC(=O)C(=C)NC(=O)c1csc(C2=NC3c4csc(n4)C4NC(=O)c5csc(n5)C(C(C)(O)C(C)O)NC(=O)C5CSC(=N5)/C(=C/C)NC(=O)C(C(C)O)NC(=O)c5csc(n5)C3(CC2)NC(=O)C(C)NC(=O)C(=C)NC(=O)C(C)NC(=O)C(C(C)CC)NC2C=Cc3c(C(C)O)cc(nc3C2O)C(=O)OC4C)n1)C(N)=O (stereo not given) | 1.67 µM (inactive) | 0.644 µM (active) |  |  |  | 1.75 µM (inactive) | 4.12 | 2.75 µM (inactive) | 1.27 µM (inactive) | 1.94 µM (inactive) | > 78.3 µM (inactive) | 1.74 µM (inactive) | 1.73 µM (inactive) | 1.34 µM (inactive) | 1.24 µM (inactive) | 1.7 µM (inactive) | 2.92 µM (inactive) | 1.65 µM (inactive) | 1.43 µM (inactive)
12 | O=Cc1ccccc1COC(=O)c1cc(C(=O)OCc2ccccc2C=O)c(C(=O)OCc2ccccc2C=O)cc1C(=O)OCc1ccccc1C=O | > 100 µM (inactive) | 43.7 µM (inactive) |  |  | 69.2 µM (inactive) | > 100 µM (inactive) | > 100 | 61.9 µM (inactive) | > 100 µM (inactive) | > 100 µM (inactive) | > 100 µM (inactive) | > 100 µM (inactive) | > 100 µM (inactive) | > 100 µM (inactive) | > 100 µM (inactive) | 31.6 µM (inactive) | > 100 µM (inactive) | 82.2 µM (inactive) | > 100 µM (inactive)
13 | C[C@H]1CC(=O)C2=CCCC3(SCCCS3)[C@@H]2[C@H]1CO | > 100 µM (inactive) | 70.8 µM (inactive) |  |  | > 100 µM (inactive) | > 100 µM (inactive) |  | > 100 µM (inactive) | > 100 µM (inactive) | > 100 µM (inactive) | > 100 µM (inactive) | > 100 µM (inactive) | > 100 µM (inactive) | > 100 µM (inactive) | > 100 µM (inactive) | > 100 µM (inactive) | > 100 µM (inactive) | > 100 µM (inactive) | > 100 µM (inactive)
14 | Cc1nc(-c2cccnc2)sc1C(=O)/C=C/c1ccc(Cl)cc1Cl |  | 31.5 µM (inactive) |  |  | > 100 µM (inactive) | > 100 µM (inactive) | > 100 | > 100 µM (inactive) | > 100 µM (inactive) | > 100 µM (inactive) | > 100 µM (inactive) | > 100 µM (inactive) | > 100 µM (inactive) | > 100 µM (inactive) | 83.9 µM (inactive) | > 100 µM (inactive) | > 100 µM (inactive) | > 100 µM (inactive) | > 100 µM (inactive)
15 | O=C(OC1CCC(=C2SCCCS2)[C@H]1C1SCCCS1)c1ccccc1 (stereo not given in full) | > 100 µM (inactive) | 86.3 µM (inactive) |  |  |  | > 100 µM (inactive) | > 100 | > 100 µM (inactive) |  | > 100 µM (inactive) | 24.5 µM (inactive) | > 100 µM (inactive) | > 100 µM (inactive) |  | 45.4 µM (inactive) | 16.9 µM (inactive) |  | > 100 µM (inactive) | > 100 µM (inactive)
16 | O=c1ncccn1C1OC(CO)C(O)C1O (stereo not given) | > 100 µM (inactive) | > 100 µM (inactive) |  |  | > 100 µM (inactive) | > 10 µM (inactive) | > 100 | > 100 µM (inactive) | > 100 µM (inactive) | > 100 µM (inactive) | > 100 µM (inactive) | > 100 µM (inactive) |  |  | > 100 µM (inactive) | > 100 µM (inactive) | > 100 µM (inactive) | > 100 µM (inactive) | > 100 µM (inactive)
